Values quoted from earlier work in article PMC8583718, “Transient Fluorescence Labeling: Low Affinity—High Benefits” (International Journal of Molecular Sciences, 2021).
Where “and” joins values, the source holds several entries; their conditions need not be identical. Equal entries are not always repeated. Where two headings read alike, the source gives them in different places. One block for each molecule: values may come before it.

Tests used:
mFAP1 = biological target: mFAP1; parameters: method as in PMID 30209393; conditions: mFAP1 with DFHBI; read-out: dissociation constant
mFAP2 = biological target: mFAP2; parameters: method as in PMID 30209393; conditions: mFAP2 with DFHBI; read-out: dissociation constant
[1] = biological target: dimeric transcription factors LmrR and RamR; parameters: method as in PMID 33913682; conditions: modified LmrR and RamR
Y-FAST = tested on: Y-FAST; parameters: method as in PMID 26711992
DNA = biological target: DNA; parameters: method as in PMID 26423723; conditions: staining of DNA
UnaG = biological target: UnaG; parameters: method as in PMID 23768684; conditions: bilirubin–UnaG
actin structures = tested on: actin structures; parameters: method as in PMID 26317264; conditions: compared among actin tags
F-actin [2] = biological target: F-actin; parameters: method as in PMID 18536722
G-actin = tested on: G-actin; parameters: method as in PMID 18536722; conditions: G-actin compared with F-actin
microtubules [3] = biological target: microtubules; parameters: method as in PMID 12773533; conditions: interaction with microtubules
microtubules [4] = biological target: microtubules; parameters: method as in PMID 29662074; conditions: interaction with microtubules
F-actin [5] = biological target: F-actin; parameters: method as in PMID 15826935; conditions: binding to F-actin
[6] = biological target: protein–fluorogen complexes; conditions: UnaG system

Kd (DNA): 8400 nM
Molecule: CN1CCN(c2ccc3nc(-c4ccc5nc(-c6ccc(OCCCCNC(=O)c7ccc(C(=O)[O-])c(C8=C9C=CC(=[N+](C)C)C=C9[Si](C)(C)c9cc(N(C)C)ccc98)c7)cc6)[nH]c5c4)[nH]c3c2)CC1 [SiR-Hoechst]

Kd (UnaG): 0.098 nM
Molecule: C=CC1=C(C)/C(=C/c2[nH]c(Cc3[nH]c(/C=C4\NC(=O)C(C)=C4C=C)c(C)c3CCC(=O)O)c(CCC(=O)O)c2C)NC1=O [bilirubin]

Kd (microtubules [4]): ~470 nM
B2: MAP7: microtubule-associated protein (protein, UniProt Q14244 2-749, looked up)
Ensconsin: AELGAGGDGHRGGDGAVRSETAPDSYKVQDKKNASSRPASAISGQNNNHSGNKPDPPPVLRVDDRQRLARERREEREKQLAAREIVWLEREERARQHYEKHLEERKKRLEEQRQKEERRRAAVEEKRRQRLEEDKERHEAVVRRTMERSQKPKQKHNRWSWGGSLHGSPSIHSADPDRRSVSTMNLSKYVDPVISKRLSSSSATLLNSPDRARRLQLSPWESSVVNRLLTPTHSFLARSKSTAALSGEAASCSPIIMPYKAAHSRNSMDRPKLFVTPPEGSSRRRIIHGTASYKKERERENVLFLTSGTRRAVSPSNPKARQPARSRLWLPSKSLPHLPGTPRPTSSLPPGSVKAAPAQVRPPSPGNIRPVKREVKVEPEKKDPEKEPQKVANEPSLKGRAPLVKVEEATVEERTPAEPEVGPAAPAMAPAPASAPAPASAPAPAPVPTPAMVSAPSSTVNASASVKTSAGTTDPEEATRLLAEKRRLAREQREKEERERREQEELERQKREELAQRVAEERTTRREEESRRLEAEQAREKEEQLQRQAEERALREREEAERAQRQKEEEARVREEAERVRQEREKHFQREEQERLERKKRLEEIMKRTRRTEATDKKTSDQRNGDIAKGALTGGTEVSALPCTTNAPGNGKPVGSPHVVTSHQSKVTVESTPDLEKQPNENGVSVQNENFEEIINLPIGSKPSRLDVTNSESPEIPLNPILAFDDEGTLGPLPQVDGVQTQQTAEVI

Kd (F-actin [5]): 18600 nM
B3: Utr261: first 261 amino acid residues of utrophin, the filament-crosslinking protein (protein, UniProt P46939 1-261, looked up, fragment)
chain: MAKYGEHEASPDNGQNEFSDIIKSRSDEHNDVQKKTFTKWINARFSKSGKPPINDMFTDLKDGRKLLDLLEGLTGTSLPKERGSTRVHALNNVNRVLQVLHQNNVELVNIGGTDIVDGNHKLTLGLLWSIILHWQVKDVMKDVMSDLQQTNSEKILLSWVRQTTRPYSQVNVLNFTTSWTDGLAFNAVLHRHKPDLFSWDKVVKMSPIERLEHAFSKAQTYLGIEKLLDPEDVAVQLPDKKSIIMYLTSLFEVLPQQVTID

Kd [6]: 0.098 nM
B4: UnaG: fluorogen-activating protein from Japanese eel muscle that reversibly binds bilirubin (protein, UniProt P0DM59 1-139, looked up)
Bilirubin-inducible …: MVEKFVGTWKIADSHNFGEYLKAIGAPKELSDGGDATTPTLYISQKDGDKMTVKIENGPPTFLDTQVKFKLGEEFDEFPSDRRKGVKSVVNLVGEKLVYVQKWDGKETTYVREIKDGKLVVTLTMGDVVAVRSYRRATE

The next lines start with the molecule.

Molecule: CC1=N/C(=C\c2cc(F)c(O)c(F)c2)C(=O)N1C [DFHBI, 3,5-difluoro-4-hydroxybenzylidene imidazolinone]
Kd (mFAP1): 180 nM
Kd (mFAP2): 560 nM
Dissociation constants [1]: submicromoles to several micromoles

Molecule: Cc1cc(C=C2SC(=S)NC2=O)ccc1O [HMBR, 4-hydroxy-3-methylbenzylidene rhodanine]
residence time in the complex (Y-FAST; 25 °C, HMBR–Y-FAST): 160 ms
Kd (Y-FAST; HMBR in complex with Y-FAST): ~130 nM

Molecule: F-tractin: residues 10–52 of rat inositol 1,4,5-triphosphate-3-kinase A (MARPRGAGPCSPGLERAPRRSVGELRLLFEARCAAVAAAAAAG; UniProt P17105 10-52, looked up, fragment)
exchange rate (actin structures): highest exchange rate among all actin tags

Molecule: Lifeact: short (17 amino acids) fragment of actin filament-binding protein Abp140 from Saccharomyces cerevisiae
Kd (F-actin [2]; affinity to F-actin): ~2200 nM and 2200 nM
exchange of probes (F-actin [2]; on F-actin): ≤ 0.4 s
higher affinity to G-actin (G-actin): 10 fold

B1: MAP4: microtubule-associated protein (protein, UniProt P27816 2-1152, looked up)
Microtubule-associated …: ADLSLADALTEPSPDIEGEIKRDFIATLEAEAFDDVVGETVGKTDYIPLLDVDEKTGNSESKKKPCSETSQIEDTPSSKPTLLANGGHGVEGSDTTGSPTEFLEEKMAYQEYPNSQNWPEDTNFCFQPEQVVDPIQTDPFKMYHDDDLADLVFPSSATADTSIFAGQNDPLKDSYGMSPCNTAVVPQGWSVEALNSPHSESFVSPEAVAEPPQPTAVPLELAKEIEMASEERPPAQALEIMMGLKTTDMAPSKETEMALAKDMALATKTEVALAKDMESPTKLDVTLAKDMQPSMESDMALVKDMELPTEKEVALVKDVRWPTETDVSSAKNVVLPTETEVAPAKDVTLLKETERASPIKMDLAPSKDMGPPKENKKETERASPIKMDLAPSKDMGPPKENKIVPAKDLVLLSEIEVAQANDIISSTEISSAEKVALSSETEVALARDMTLPPETNVILTKDKALPLEAEVAPVKDMAQLPETEIAPAKDVAPSTVKEVGLLKDMSPLSETEMALGKDVTPPPETEVVLIKNVCLPPEMEVALTEDQVPALKTEAPLAKDGVLTLANNVTPAKDVPPLSETEATPVPIKDMEIAQTQKGISEDSHLESLQDVGQSAAPTFMISPETVTGTGKKCSLPAEEDSVLEKLGERKPCNSQPSELSSETSGIARPEEGRPVVSGTGNDITTPPNKELPPSPEKKTKPLATTQPAKTSTSKAKTQPTSLPKQPAPTTIGGLNKKPMSLASGLVPAAPPKRPAVASARPSILPSKDVKPKPIADAKAPEKRASPSKPASAPASRSGSKSTQTVAKTTTAAAVASTGPSSRSPSTLLPKKPTAIKTEGKPAEVKKMTAKSVPADLSRPKSTSTSSMKKTTTLSGTAPAAGVVPSRVKATPMPSRPSTTPFIDKKPTSAKPSSTTPRLSRLATNTSAPDLKNVRSKVGSTENIKHQPGGGRAKVEKKTEAAATTRKPESNAVTKTAGPIASAQKQPAGKVQIVSKKVSYSHIQSKCGSKDNIKHVPGGGNVQIQNKKVDISKVSSKCGSKANIKHKPGGGDVKIESQKLNFKEKAQAKVGSLDNVGHLPAGGAVKTEGGGSEAPLCPGPPAGEEPAISEAAPEAGAPTSASGLNGHPTLSGGGDQREAQTLDSQIQETSI
Kd (microtubules [3]): ~300 nM
